Measurements taken from patent US11124490B2, “Autotaxin inhibitors” (UNIVERSITY OF TENNESSEE RESEARCH FOUNDATION, priority 2016, dated 2021).
Several values for one entry are separate records, joined by “and”; a condition that tells them apart may be missing. Equal entries are not always repeated.

Tests used:
[1] = biological target: T1, human recombinant ATX (Homo sapiens (Human), UniProt Q13822); test: ATX inhibition, hydrolysis of FRET substrate FS-3; format: biochemical; settings: for IC50: 1 μM FS-3, 4 nM human recombinant ATX, 1 hour time point, read-out: IC50 (nM ± SD) vs FS-3
Protocol: (§1) ATX Generation: Human recombinant ATX was expressed as published previously, using Sf9 Spodoptera frugiperda ovary cells (Invitrogen, Carlsbad, Calif.).^13 Suspension cells were grown to a 1 liter quantity at a concentration of 1×10^6 cells/ml in Sf-900 III serum-free medium (Invitrogen) supplemented with 50 U/ml penicillin and 50 μg/ml streptomycin at 27° C. with agitation. Cells were then infected with high-titer baculovirus generated via Bac-to-Bac Baculovirus Expression System (Invitrogen) using the pCMV5 mammalian expression vector containing the C-terminal FLAG-tagged human ATX sequence (a generous gift from Dr. Junken Aoko, ohoku University, Aoba-ku, Sendai, Japan) subcloned into the pFastBacl transfer vector. […] Resultant ATX was then concentrated via centrifugation in Amicon Ultra 30,000 molecular weight cut off filter units (Millipore, Billerica, Mass.) and subsequent buffer exchange into storage buffer comprised of 50 mM Tris, pH 7.4 with 20% (v/v) ethylene glycol. Protein was held at −80° C. for long-term storage.
(§2) ATX Inhibition: ATX activity was assessed via hydrolysis of the synthetic, lipid-like FRET-based substrate FS-3 (Echelon Biosciences, Salt Lake City, Utah) or via hydrolysis of the nucleotide substrate p-nitrophenyl thymidine 5′-monophosphate (pNP-TMP) as described previously.^2 Reaction wells were loaded in 60 μl volumes in triplicate wells of half-area, black-wall 96-well plates in assay buffer consisting of 50 mM Tris, 140 mM NaCl, 5 mM KCl, 1 mM CaCl2, 1 mM MgCl2, […] BSA, pH 8.0. […] Fluorescence was read every 2 minutes for 1 hour at excitation/emission wavelengths of 485/528 nm for FS-3 hydrolysis or 405 nm absorbance for pNP-TMP hydrolysis using a FlexStation 3 microplate reader (Molecular Devices, Sunnyvale, Calif.). Data (relative fluorescence or absorbance) were then recorded as a mean value of the triplicates for each sample versus time. […] In the case of mechanism determination, the linear fluorescence data from time 10 minutes to 30 minutes were then transformed using a carboxyfluorescein standard curve to determine product concentration and plotted separately. Linear trend lines were inserted using Microsoft Excel, the slope of which represent the rates of reaction for each substrate concentration. This reaction rate data for each inhibitor concentration were then plotted against substrate (FS-3) concentration and simultaneously fitted via non-linear regression in the Michaelis-Menten equations for competitive, non-competitive, uncompetitive, and mixed-mode inhibition using GraphPad Prism version 5.0a. Mechanism of inhibition was determined by which curve fit had the best global fit (R^2 value).

[2] = biological target: LPA1 receptor (Homo sapiens (Human), UniProt Q92633); test: LPA-mediated Ca2+ mobilization, LPA1 RH7777 cells; format: cell-based; settings: for IC50: IC50 of compound in presence of EC50 concentration of LPA 18:1, read-out: EC50 or IC50 (μM), LPA1 RH7777; for Emax (% LPA), LPA1 RH7777: normalized to LPA 18:1 Emax
Protocol: Cell Culture: LPA1 and LPA3 RH7777 rat hepatoma cells were generated in-house as described previously^34 and maintained in DMEM supplemented with 10% FBS and 2 mM L-glutamine with 250 μg/ml G418. LPA2 MEF mouse embryonic fibroblast cells were also derived from LPA1 and LPA2 double knockout mouse embryos as described previously^35 and maintained in DMEM supplemented with 10% FBS, 2 mM L-glutamine, 100 U/ml penicillin and 100 μg/ml streptomycin. LPA4 CHO chinese hamster ovary cells were a generous gift from Dr. Takao Shimizu (Tokyo University, Tokyo, Japan) and were maintained in Ham's F12 medium supplemented with 10% FBS, 2 mM L-glutamine and 350 μg/ml G418. LPA5 B103 rate neuroblastoma cells were derived in house via lentiviral transduction of FLAG-tagged LPA5 and puromycin selection as published^36 and maintained in DMEM supplemented with 10% FBS and 0.4 μg/ml puromycin. All cells were maintained at 37° C. with 5% CO2 in a humidified atmosphere.
Calcium Mobilization: As published previously, LPAR activation leads to transient calcium mobilization. […] All cells were plated in triplicate in 96-well, black-wall plates at a density of 5×10^4 cells per well and allowed to adhere overnight. LPA1 and LPA3 RH7777 cells were plated in poly-L-lysine coated plates. LPA5 B103 cells were plated in Matrigel-coated plates. After adherence, cells were serum-deprived in Krebs buffer consisting of 10 mM HEPES, pH 7.4 with 120 mM NaCl; 5 mM KCl; 1.8 mM CaCl2; 0.62 mM MgSO4; 6 mM D-glucose. LPA1 RH7777, LPA3 RH7777 and LPA5 B103 cells were serum-deprived for 4 hours, while LPA2 MEF cells were serum-deprived for 1 hour, and LPA4 CHO cells were not serum-deprived. Fura 2-AM was then loaded for 30 minutes at a concentration of 4.5 μg/ml in Krebs buffer with 0.45% (v/v) Pluronic F-127 (and additionally 0.1% BSA and 2.5 mM Probenicid for LPA4 CHO cells), after which cells were switched to fresh Krebs buffer. […] Fluorescence corresponding to calcium mobilization was immediately monitored upon addition every 3.42 seconds over a span of 70 seconds total at excitation/emission wavelengths of 340/510 and 380/510 nm. […] GraphPad Prism version 5.0a was then used to plot the data and fit non-linear regression curves in a variable slope model in order to determine the pharmacodynamics (EC50 or IC50) of the compounds in Ca^2+ mobilization.

[3] = biological target: T1, human recombinant ATX; test: ATX inhibition, hydrolysis of nucleotide substrate pNP-TMP; format: biochemical; settings: 1 mM pNP-TMP, 4 nM ATX, compound 0 to 1 μM
Protocol: as §1, §2

[4] = system: A2058 human melanoma cells; test: In vitro invasion assay (boyden chamber, matrigel); format: cell-based; settings: recombinant ATX plus 1 μM 18:1 LPC, 20 h, read-out: IC50 (nM) in cell invasion assay
Protocol: The boyden chamber assay was used to assess the effect of three of the benzene sulfonamide analogues on cell invasion of A2058 human melanoma cells in vitro. The A2058 cells invade the matrigel layer in an LPA-dependent manner. Therefore, exogenous LPC and recombinant ATX was used as a source of LPA. Firstly, the compounds were screened at 10 μM concentration alongside BMP 22, a potent ATX inhibitor^31. […] Subsequently, dose response curves for compounds 3a, 3b and 14 were generated (FIG. 13B).
In vitro invasion assay—A2058 human melanoma cell line (gift from Dr. Timothy Clair, NCI, National Institutes of Health) was cultured in Dulbecco's modified Eagle's medium (DMEM) supplemented with 10% (V/V) FBS, 100 U/mL penicillin, 100 μg/mL streptomycin and 2 mM L-glutamine (Life Technologies). Cell invasion was performed using the 24-well BD Biocoat™ tumor invasion system (BD Biosciences, 8 μm-pore size). Briefly, the matrigel coating was rehydrated with PBS at 37° C. for 2 h. After removal of PBS, 5×10^4 A2058 cells in serum-free DMEM supplemented with 0.1% BSA were plated to each upper chamber. […] The fluorescent invaded cells were measured using the FLEXstation II plate reader (Molecular Devices) at excitation and emission wavelengths of 485 and 530 nm, respectively.

Chain of LPA1 receptor (Q92633 whole entry): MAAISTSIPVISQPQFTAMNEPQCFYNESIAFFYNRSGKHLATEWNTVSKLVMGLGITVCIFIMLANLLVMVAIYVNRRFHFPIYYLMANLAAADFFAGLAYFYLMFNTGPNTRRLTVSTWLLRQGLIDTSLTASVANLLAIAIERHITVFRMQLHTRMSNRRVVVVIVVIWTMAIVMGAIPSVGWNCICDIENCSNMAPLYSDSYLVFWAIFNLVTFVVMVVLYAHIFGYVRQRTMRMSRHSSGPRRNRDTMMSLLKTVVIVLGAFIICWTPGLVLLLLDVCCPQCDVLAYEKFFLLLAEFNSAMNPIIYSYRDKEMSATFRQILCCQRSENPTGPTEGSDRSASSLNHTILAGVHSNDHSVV

IC50 [1] | IC50 [2] [µM] | Emax (% LPA), LPA1 RH7777 [2] [% LPA] | pNP-TMP Inhibition [3] | Mechanism ([1]; mechanism of inhibition, FS-3 0 to 10 μM, inhibitor 0, 0.5×IC50 or 2×IC50) | IC50 [4] [nM] | fold IC50 improvement relative to screening hit 918013 [1] | Structure (SMILES)
83 nM and 83.7 nM | 3.96 | 38.58 | None | – | – | – | O=C(Nc1cc(F)c(Cl)c(F)c1)c1cc(S(=O)(=O)N2CCOCC2)c(Cl)cc1Cl [Compound 3f, 2,4-dichloro-N-(4-chloro-3,5-difluorophenyl)-5-(morpholinosulfonyl)benzamide]
40.09 ± 0.33 nM | 11.9 | 36.08 | None | – | – | – | O=C(Nc1cc(Cl)c(F)c(Cl)c1)c1cc(S(=O)(=O)N2CCOCC2)c(Cl)cc1Cl [Compound 3g, 2,4-dichloro-N-(3,5-dichloro-4-fluorophenyl)-5-(morpholinosulfonyl)benzamide]
– | 9.1 | 37.99 | sparing effects and None | Competitive | 528 ± 13.9 | – | O=C(Nc1cc(F)c(F)c(F)c1)c1cc(S(=O)(=O)N2CCOCC2)c(Cl)cc1Cl [Compound 3b, 2,4-dichloro-5-(morpholinosulfonyl)-N-(3,4,5-trifluorophenyl)benzamide]
31.5 ± 2.11 nM | – | – | None | – | 1478 ± 12.3 | four-fold | O=C(Nc1ccc(F)c(F)c1)c1cc(S(=O)(=O)N2CCOCC2)c(Cl)cc1Cl [Compound 3a, 2,4-dichloro-N-(3,4-difluorophenyl)-5-(morpholinosulfonyl)benzamide]
